These results are taken from publication PMC9481151, “Discovery of new symmetrical and asymmetrical nitrile-containing 1,4-dihydropyridine derivatives as dual kinases and P-glycoprotein inhibitors: synthesis, in vitro assays, and in silico studies” (Journal of Enzyme Inhibition and Medicinal Chemistry, 2022).

≈ marks a conversion by molar mass, not a printed value. Read-outs that look alike come from different tables or passages of the source.

Assay [1] concerns Pseudomonas aeruginosa. The assay is described as follows: Agar well diffusion method.
In assay [2] the test system is Escherichia coli. The assay can be described thus: Agar well diffusion method. (In general: Agar diffusion results depend on both activity and mobility in agar.)
The subject of assay [3] is G positive and G negative bacteria. The assay is described as follows: Agar well diffusion method, summary. It counts as cell-based. As to conditions: reference drug, range over four strains. The text has this:
As a control, DMSO solvent was employed.

The subject of assay [4] is P. aeruginosa. The assay can be described thus: MIC, two-fold microbroth dilution method. As to conditions: Pseudomonas aeruginosa, read-out: MIC (µg/mL) P. aeruginosa. On the technique in general: Dilution methods test growth across graded concentrations, often in twofold steps.
Assay [5] relates to B. subtilis. The assay is described as follows: MIC, two-fold microbroth dilution method. As to conditions: Bacillus subtilis.
For assay [6], the system named is Staphylococcus aureus. The assay can be described thus: Agar well diffusion method.
Assay [7] has as its system Bacillus subtilis. The assay is described as follows: Agar well diffusion method.
Assay [8] relates to S. aureus. The assay is described as follows: MIC, two-fold microbroth dilution method. To be noted: Staphylococcus aureus.
The test system of assay [9] is E. coli. The assay can be described thus: MIC, two-fold microbroth dilution method. To be noted: Escherichia coli, read-out: MIC (µg/mL) E. coli.
In assay [10] the test system is fungi (Candida albicans and Aspergillus flavus). The assay is described as follows: Agar well diffusion method, summary. As to conditions: range over strains.
Assay [11] deals with C. albicans. The assay is described as follows: MIC, two-fold microbroth dilution method. To be noted: Candida albicans, read-out: MIC (µg/mL) C. albicans.
Assay [12] relates to Aspergillus flavus. The assay is described as follows: Agar well diffusion method.
Assay [13] deals with A. flavus. The assay can be described thus: MIC, two-fold microbroth dilution method. As to conditions: Aspergillus flavus, read-out: MIC (µg/mL) A. flavus.
The subject of assay [14] is Candida albicans. The assay can be described thus: Agar well diffusion method.
In assay [15] the test system is L-type calcium channels. To be noted: cited from earlier work.

What is called zone of inhibition is the size of the clear area around the sample on an inoculated plate. Regarding `O=C(O)c1cn(C2CC2)c2cc(N3CCNCC3)c(F)cc2c1=O` [Ciprofloxacin, reference compound], the zone of inhibition at 1000 µg/mL in assay [1] (Pseudomonas aeruginosa, 24 h, read-out: Diameter of inhibition zone, P. aeruginosa) was determined as 23 mm; in assay [2] (Escherichia coli, 24 h, read-out: Diameter of inhibition zone, E. coli) it was 26 mm; in assay [6] (Staphylococcus aureus, 24 h, read-out: Diameter of inhibition zone, S. aureus) it was 24 mm; in assay [7] (Bacillus subtilis, 24 h, read-out: Diameter of inhibition zone, B. subtilis) it was 23 mm. In [1] (relative to ciprofloxacin), the “% activity index, P. aeruginosa” value is 100%. For the same molecule, in assay [2] (relative to ciprofloxacin), the “% activity index, E. coli” value is reported as 100%. Moreover, the DIZs against bacteria in assay [3] is listed as 23–26 mm. The MIC in assay [4] came to 1 µg/mL (≈ 3.02 µM); in [5] (24 h, read-out: MIC, B. subtilis) it was 2 µg/mL (≈ 6.04 µM); in assay [5] (read-out: MIC (µg/mL) B. subtilis), 2 µg/mL (≈ 6.04 µM); in assay [8] (24 h, read-out: MIC, S. aureus) it was 1 µg/mL (≈ 3.02 µM); in [8] (read-out: MIC (µg/mL) S. aureus), 1 µg/mL (≈ 3.02 µM); in assay [9], 0.5 µg/mL (≈ 1.51 µM). In addition, the “% activity index, S. aureus” value in assay [6] (relative to ciprofloxacin) is on record as 100%. In assay [7] (relative to ciprofloxacin), the “% activity index, B. subtilis” value stood at 100%.

Consider `Clc1ccccc1C(c1ccccc1)(c1ccccc1)n1ccnc1` [Clotrimazole, reference compound], for which, in [10], the DIZs against fungi is recorded as 25–27 mm. The figures for the MIC in [11] and in assay [13] were 2 µg/mL (≈ 5.8 µM) and 1 µg/mL (≈ 2.9 µM), respectively. Also, the zone of inhibition at 1000 µg/mL in [12] (Aspergillus flavus, 24 h, read-out: Diameter of inhibition zone, A. flavus) is 25 mm; in [14] (Candida albicans, 24 h, read-out: Diameter of inhibition zone, C. albicans) it was 27 mm. Moreover, the “% activity index, A. flavus” value in [12] (relative to clotrimazole) is 100%. The “% activity index, C. albicans” value in assay [14] (relative to clotrimazole) was 100%.

In the case of `COC(=O)C1=C(C)NC(C)=C(C(=O)OCCCN2CCC(c3ccccc3)(c3ccccc3)CC2)[C@@H]1c1cccc([N+](=O)[O-])c1` [Dexniguldipine, dexniguldipine], in assay [15], the “times less potent than (+)-niguldipine in its interaction with L-type calcium channels” value is on record as 40.
